Data from patent publication US20230021448A1, “COMPOUNDS AND COMPOSITIONS FOR TREATING CONDITIONS ASSOCIATED WITH STING ACTIVITY” (IFM Due, Inc., priority 2019, published 2023).

Biological target: T1, STING (Homo sapiens, UniProt Q86WV6, G230A/H232R/R293Q/R71H)
T1 construct: host or cells: THP1-Dual KO-IFNAR2 cells
Experiment: STING reporter assay: luciferase reporter activity in THP1-Dual KO-IFNAR2 cells stimulated with 2'3'cGAMP
Assay type: cell-based
Settings: 2′3′cGAMP 15 μM final, 24h, read-out: hSTING: EC50
Procedure, shortened: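 THP1-Dual KO-IFNAR2 cells (2×10E6 cells/mL) incubated with compounds at 0.0017-100 μM final plus Lipofectamine-transfected 2′3′cGAMP (15 μM final), 24 h at 37 °C, 5% CO2. Luciferase in supernatant read by QUANTI-Luc luminescence; EC50 derived.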

T1 sequence (Q86WV6 whole entry R71H/G230A/H232R/R293Q): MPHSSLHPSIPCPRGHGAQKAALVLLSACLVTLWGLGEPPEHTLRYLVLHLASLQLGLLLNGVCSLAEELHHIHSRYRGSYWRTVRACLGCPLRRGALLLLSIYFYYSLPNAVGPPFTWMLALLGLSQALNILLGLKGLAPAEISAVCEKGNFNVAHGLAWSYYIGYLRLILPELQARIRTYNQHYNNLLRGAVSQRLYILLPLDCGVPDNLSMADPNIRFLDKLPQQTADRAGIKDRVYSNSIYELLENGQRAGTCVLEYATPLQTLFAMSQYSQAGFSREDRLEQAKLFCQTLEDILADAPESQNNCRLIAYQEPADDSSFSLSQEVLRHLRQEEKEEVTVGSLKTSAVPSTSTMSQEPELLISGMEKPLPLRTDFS

`O=C(Nc1c[nH]c2cc(F)c(F)cc12)C(=O)NC1COc2ccccc2C1` (stereo not drawn) [Compound 301, N-(5,6-difluoro-1H-indol-3-yl)-N′-(3,4-dihydro-2H-1-benzopyran-3-yl)ethanediamide] and `O=C(Nc1c[nH]c2cc(F)c(F)cc12)C(=O)NC1CCc2ccccc2C1` (stereo not drawn) [Compound 313, N-(5,6-difluoro-1H-indol-3-yl)-N′-(1,2,3,4-tetrahydronaphthalen-2-yl)ethanediamide] fall in the same range of EC50: 0.2 to 1 µM for the first, 0.2 to 1 µM for the second.

First: O=C(Nc1ccc(C(F)(F)F)cc1)C(=O)Nc1c[nH]c2ccc(Br)cc12 [Compound 302]
Second: CC(C)n1cc(-c2ccc3[nH]cc(NC(=O)C(=O)Nc4ccc(C(F)(F)F)cc4)c3c2)cn1 [Compound 346]
The EC50 of the first is lower: 0.04 to 0.2 µM for the first, 0.2 to 1 µM for the second.

Compared with `CC(NC(=O)C(=O)Nc1c[nH]c2cc(F)c(F)cc12)c1cc(C(F)(F)F)c(Cl)cn1` (stereo not drawn) [Compound 303], `O=C(NCc1cc(C(F)(F)F)c(Cl)cn1)C(=O)Nc1c[nH]c2cc(F)c(F)cc12` [Compound 335] is lower in EC50: 0.2 to 1 µM for the first, 0.04 to 0.2 µM for the second. The second is the more potent here.

`O=C(NCc1ccc2ccccc2n1)C(=O)Nc1c[nH]c2cc(F)c(F)cc12` [Compound 304, N-(5,6-difluoro-1H-indol-3-yl)-N′-[(quinolin-2-yl)methyl] ethanediamide] and `O=C(NCc1cccc(C(F)(F)F)n1)C(=O)Nc1c[nH]c2cc(F)c(F)cc12` [Compound 338] fall in the same range of EC50: 0.2 to 1 µM for the first, 0.2 to 1 µM for the second.

`O=C(NCCOC1CCCC1)C(=O)Nc1c[nH]c2cc(F)c(F)cc12` [Compound 305, N'-[2-(cyclopentyloxy)ethyl]-N-(5,6-difluoro-1H-indol-3-yl)ethanediamide] and `O=C(Nc1c[nH]c2cc(F)c(F)cc12)C(=O)NC1CCC2(CCCC2)CC1` [Compound 314] fall in the same range of EC50: 0.2 to 1 µM for the first, 0.2 to 1 µM for the second.

First: CN(C(=O)CNC(=O)C(=O)Nc1c[nH]c2cc(F)c(F)cc12)c1ccccc1 [Compound 306, N-(5,6-difluoro-1H-indol-3-yl)-N′-{[methyl(phenyl)carbamoyl]methyl} ethanediamide]
Second: CN(CCNC(=O)C(=O)Nc1c[nH]c2cc(F)c(F)cc12)c1ccccc1 [Compound 331]
The EC50 of the first is higher: 1 to 5 µM for the first, 0.2 to 1 µM for the second. The second is the more potent here.

`CN(CCCNC(=O)C(=O)Nc1c[nH]c2cc(F)c(F)cc12)c1ccccc1` [Compound 307, N-(5,6-difluoro-1H-indol-3-yl)-N′-{3-[methyl(phenyl)amino]propyl}ethanediamide] and `CC(CN(C)c1ccccc1)NC(=O)C(=O)Nc1c[nH]c2cc(F)c(F)cc12` (stereo not drawn) [Compound 328] fall in the same range of EC50: 0.2 to 1 µM for the first, 0.2 to 1 µM for the second.

First: CN(C)CC(NC(=O)C(=O)Nc1c[nH]c2cc(F)c(F)cc12)c1ccccc1 (stereo not drawn) [Compound 308, N-(5,6-difluoro-1H-indol-3-yl)-N′-[2-(dimethylamino)-1-phenylethyl] ethanediamide]
Second: COCC(NC(=O)C(=O)Nc1c[nH]c2cc(F)c(F)cc12)c1ccccc1 (stereo not drawn) [Compound 310, N-(5,6-difluoro-1H-indol-3-yl)-N′-(2-methoxy-1-phenylethyl) ethanediamide]
The EC50 of the first is higher: 5 to 100 µM for the first, 1 to 5 µM for the second. The second is the more potent here.

`O=C(NCC(=O)N1CCc2ccccc21)C(=O)Nc1c[nH]c2cc(F)c(F)cc12` [Compound 309, N-(5,6-difluoro-1H-indol-3-yl)-N′-[2-(2,3-dihydro-1H-indol-1-yl)-2-oxoethyl] ethanediamide] and `O=C(NC[C@@H](c1ccccc1)C(F)F)C(=O)Nc1c[nH]c2cc(F)c(F)cc12` [Compound 348] fall in the same range of EC50: 0.2 to 1 µM for the first, 0.2 to 1 µM for the second.

`CCC(NC(=O)C(=O)Nc1c[nH]c2cc(F)c(F)cc12)c1cccc(C(F)(F)F)c1` (stereo not drawn) [Compound 311, N-(5,6-difluoro-1H-indol-3-yl)-N′-{1-[3-(trifluoromethyl)phenyl]propyl} ethanediamide] and `O=C(NCCc1cccc(C(F)(F)F)c1)C(=O)Nc1c[nH]c2cc(F)c(F)cc12` [Compound 351] fall in the same range of EC50: 0.2 to 1 µM for the first, 0.2 to 1 µM for the second.

`O=C(Nc1c[nH]c2cc(F)c(F)cc12)C(=O)NC(c1ccccc1)C(F)(F)F` (stereo not drawn) [Compound 312, N1-(5,6-difluoro-1H-indol-3-yl)-N2-(2,2,2-trifluoro-1-phenylethyl)oxalamide] and `O=C(NCc1ccc(C(F)(F)F)nc1)C(=O)Nc1c[nH]c2cc(F)c(F)cc12` [Compound 344] fall in the same range of EC50: 0.2 to 1 µM for the first, 0.2 to 1 µM for the second.

First: O=C(Nc1c[nH]c2cc(F)c(F)cc12)C(=O)NC1CCC(Oc2ccc(C(F)(F)F)cc2)CC1 (stereo not drawn) [Compound 315]
Second: O=C(Nc1c[nH]c2cc(F)c(F)cc12)C(=O)N1CCC(Oc2ccc(C(F)(F)F)cc2)CC1 [Compound 317]
The EC50 of the first is lower: 0.04 to 0.2 µM for the first, 0.2 to 1 µM for the second. The first is the more potent here.

First: O=C(Nc1c[nH]c2cc(F)c(F)cc12)C(=O)NC1CCC(Oc2ccccn2)CC1 (stereo not drawn) [Compound 316]
Second: O=C(Nc1c[nH]c2cc(F)c(F)cc12)C(=O)NC1CCN(c2cccnc2)C1 (stereo not drawn) [Compound 332]
The EC50 of the first is lower: 0.2 to 1 µM for the first, 1 to 5 µM for the second.

`Cc1cnc(CNC(=O)C(=O)Nc2c[nH]c3cc(F)c(F)cc23)cc1C(F)(F)F` [Compound 318] and `O=C(NCc1ccc(Cl)c(C(F)(F)F)n1)C(=O)Nc1c[nH]c2cc(F)c(F)cc12` [Compound 334] fall in the same range of EC50: 0.2 to 1 µM for the first, 0.2 to 1 µM for the second.

`N#Cc1ccc2[nH]cc(NC(=O)C(=O)NCc3ccc(C(F)(F)F)c(Cl)c3)c2c1` [Compound 321] and `O=C(NCc1ccc(C(F)(F)F)c(Cl)c1)C(=O)Nc1c[nH]c2ccc(CCO)cc12` [Compound 339, N-(3-chloro-4-(trifluoromethyl)benzyl)-N′-(5-(2-hydroxyethyl)-1H-indol-3-yl)oxalamide] fall in the same range of EC50: 0.2 to 1 µM for the first, 0.2 to 1 µM for the second.

`CN(CCNC(=O)C(=O)Nc1c[nH]c2cc(F)c(F)cc12)c1ccccn1` [Compound 322] and `O=C(NCc1ccnc(C(F)(F)F)c1)C(=O)Nc1c[nH]c2cc(F)c(F)cc12` [Compound 342] fall in the same range of EC50: 0.2 to 1 µM for the first, 0.2 to 1 µM for the second.

`Cc1cc2c(cn1)C(NC(=O)C(=O)Nc1c[nH]c3cc(F)c(F)cc13)CCC2` (stereo not drawn) [Compound 323] and `O=C(NCc1cnc(C2CCC(F)(F)CC2)c(F)c1)C(=O)Nc1c[nH]c2cc(F)c(F)cc12` [Compound 333] fall in the same range of EC50: 0.2 to 1 µM for the first, 0.2 to 1 µM for the second.

`O=C(NCc1ccnc(N2CCCCC2)c1)C(=O)Nc1c[nH]c2cc(F)c(F)cc12` [Compound 324] and `O=C(NCc1cccc(N2CCCCC2)n1)C(=O)Nc1c[nH]c2cc(F)c(F)cc12` [Compound 326] fall in the same range of EC50: 0.2 to 1 µM for the first, 0.2 to 1 µM for the second.

`O=C(NCCOc1cncc(C(F)(F)F)c1)C(=O)Nc1c[nH]c2cc(F)c(F)cc12` [Compound 325] and `O=C(NCc1cncc(C(F)(F)F)c1)C(=O)Nc1c[nH]c2cc(F)c(F)cc12` [Compound 343] fall in the same range of EC50: 0.2 to 1 µM for the first, 0.2 to 1 µM for the second.

`O=C(NCCOc1ccc(C(F)(F)F)nc1)C(=O)Nc1c[nH]c2cc(F)c(F)cc12` [Compound 327] and `O=C(Nc1c[nH]c2cc(F)c(F)cc12)C(=O)NC1CCN(c2ccc(C(F)(F)F)cn2)C1` (stereo not drawn) [Compound 337] fall in the same range of EC50: 0.2 to 1 µM for the first, 0.2 to 1 µM for the second.

`O=C(Nc1c[nH]c2cc(F)c(F)cc12)C(=O)NC1CCN(Cc2cccc(C(F)(F)F)c2)C1` (stereo not drawn) [Compound 336] and `CC(C)n1cc(-c2cc3c(NC(=O)C(=O)Nc4ccc(C(F)(F)F)cc4)c[nH]c3cc2F)cn1` [Compound 341, N-(6-fluoro-5-(1-isopropyl-1H-pyrazol-4-yl)-1H-indol-3-yl)-N′-(4-(trifluoromethyl)phenyl)oxalamide] fall in the same range of EC50: 0.2 to 1 µM for the first, 0.2 to 1 µM for the second.

`CC(C)(O)c1cccc(-c2ccc3[nH]cc(NC(=O)C(=O)NCc4ccc(C(F)(F)F)c(Cl)c4)c3c2)c1` [Compound 340] and `O=C(NCc1ccc(C(F)(F)F)c(Cl)c1)C(=O)Nc1c[nH]c2ccc(-c3cccc(CO)c3)cc12` [Compound 349, N-(3-chloro-4-(trifluoromethyl)benzyl)-N′-(5-(3-(hydroxymethyl)phenyl)-1H-indol-3-yl)oxalamide] fall in the same range of EC50: 1 to 5 µM for the first, 1 to 5 µM for the second.

`O=C(NCc1ccc(C(F)(F)F)c(Cl)c1)C(=O)Nc1c[nH]c2ccc(-c3cnn(CC(F)(F)F)c3)cc12` [Compound 350] gave an EC50 of 0.2 to 1 µM.
